From US9981956B2, “Small molecule inhibitors of fibrosis” (THE CALIFORNIA INSTITUTE FOR BIOMEDICAL RESEARCH, priority 2013, dated 2018)
Where two headings read alike, the source gives them in different places.

Tests used:
Cyp3A4 [1] = molecular target: T1, Cyp3A4 (Homo sapiens, UniProt P08684); assay: Cyp reversible inhibition assay (human liver microsomes)
Procedure: The purpose of this assay was to determine reversible inhibition of Cyp enzyme with a given compound using a substrate probe turnover as the surrogate for inhibition. This was done with human liver microsomes rather an isolated enzyme to account for metabolites of parent drug leading to a potential drug-drug interaction through Cyp inhibition. The substrate turnover (for example conversion of midazolam to hydroxyl midazolam) was monitored by LCMSMS (Q1/Q2=342.2/203.2). Test compounds were tested in a 7-point dose response curve starting from 50 μM to 50 nM (˜3-fold dilution series).
The detailed protocol was as follows: • Prepared test compounds and standard inhibitors working solution (100×) • Pulled microsomes out of the −80° C. freezer to thaw on ice, labeled with the date and put back to freezer immediately after using. • Added 20 μL of the substrate solutions to corresponding wells. • Added 20 μL PB to Blank wells. • Added 2 μL of the test compounds and positive control working solution to corresponding wells. • Added 2 μL MeOH to No Inhibitor wells and Blank wells. • Prepared HLM working solution. • Added 158 μL of the HLM working solution to all wells of incubation plate. • Pre-warmed the plate for about 10 min at 37° C. water bath. • Prepared NADPH cofactor solution. • Added 20 μL NADPH cofactor to all incubation wells. • Mixed and incubated for 10 minutes at 37° C. water bath. • At the time point, terminated the reaction by adding 400 μL cold stop solution (200 ng/mL Tolbutamide in ACN). • Centrifuged the samples at 4000 rpm for 20 minutes to precipitate protein. • Transferred 200 μL supernatant to 200 μL HPLC water and shook for 10 min. • Analyzed samples by LC/MS/MS.

Cyp3A4 [2] = molecular target: T1, Cyp3A4; assay: Cyp time-dependent inhibition (TDI) assay (human liver microsomes); format: in vitro ADME; set-up: The TDI assay was generally performed in liver microsomes; from tissue; host or cells: human liver microsomes; details: for IC50: human liver microsomes; for TDI ratio: (−) NADPH/(+) NADPH: IC50 shift, >1.5-fold considered positive for TDI
Procedure: The data from this assay was used in conjunction to the reversible inhibition assay. […] Then both incubation sets were diluted with fresh assay buffer containing NADPH Cyp specific substrates (midazolam for Cyp3A4) and inhibition of midazolam hydroxylation was measured by LC-MS/MS (Q1/Q2=m/z 342.2/203.2).

[3] = Mouse pharmacokinetic (PK) studies, snapshot format; format: in vivo; details: plasma, po, 20 mg/kg; for AUC(0-t): read-out: AUC0-24 h
Procedure: Compounds with suitable in vitro ADME properties were progressed to in vivo PK studies. A snapshot format in mice was used to quickly assess the potential for lead candidates to be orally bioavailable. The snapshot format involved a single dose (typically 20 mg/kg) given orally in a standard vehicle (5% PEG/DMSO in water for example). Compounds were infused directly into MS analysis to determine unique MRM (multiple reaction monitoring) signal that is concentration dependent in either ESI positive or negative modes. HPLC analysis using various solvent gradients was performed from organic and aqueous solution to ensure good peak shape of desired Q1/Q2 masses. Formulations included 45% Cyclodextrin in water (as is used clinically for Itraconazole). Other formulations that may used are solutol, Eudragit, MC/Tween, etc. Standard curves were generated using plasma spiked with compound at various concentrations (10 ng/mL to 2000 ng/mL) to determine linear range of Q1/Q2 mass signal to compound concentration using female mouse heparinized plasma. Mice were dosed orally with compound, plasma samples collected by retro-orbital bleeds. Five time points were collected (30 min, 1 h, 4 h, 8 h, 24 h) into heparinized collection tubes. Protein precipitation was performed and compound extracted in cold acetonitrile and analyzed by MS. Nonwinlin was used for PK modeling as needed.

[4] = test system: bleomycin-induced lung fibrosis; assay: Bleomycin-induced lung fibrosis model; format: in vivo, mouse; details: 10 mg/kg SID versus AM-152 (30 mg/kg BID) and pirfenidone (400 mg/kg BID)
From the text: These in vivo assays took 6-8 weeks to complete (including full histological analysis). Typical experiments consisted of groups of 6-8 animals treated with itraconazole (2-4 doses), 1 or 2 itraconazole analogues (2-4 doses), vehicle, and benchmark treatments (pirfenidone and AM-152). AM-152 (Amira Pharmaceuticals) is an LPA1 (Lysophosphatidic acid 1) receptor antagonist. This target has been described as relevant to exacerbation of IPF systems in a mouse bleomycin model (British Journal of Pharmacology (2010), 160, 1699-1713). AM-152 is an advanced compound on this target as has been previously described in more detail in WO 2012/078805 and was used as a positive control and comparator to the compound disclosed in this application.
Nine-week old B6 male mice (Taconic farms) were surgically implanted with osmotic pumps delivering 25 mg/kg bleomycin for seven days. 17 days after surgery mice were treated with drug for 2 weeks. Drug treatments were administered as described in study design (FIG. 14). Previously described anti-fibrotic drugs AM-152 and pirfenidone were used as positive control drugs. […] Stained lung sections were analyzed according to a modified Ashcroft scoring system (FIG. 16) and using an unbiased automated image analysis method. […] Total stained area was then determined by using the area measurement function within ImageJ.

[5] = Cyp 3A4 midazolam LCMS IC50, human liver microsomes, substrate midazolam
[6] = Cyp 3A4 testosterone LCMS IC50, human liver microsomes, substrate testosterone
[7] = 20 min pre-incubation with NADPH, read-out: 3A4-Midazolam IC50 (+) NADPH
[8] = 20 min pre-incubation without NADPH, read-out: 3A4-Midazolam IC50 (−) NADPH
[9] = 20 mg/kg in 0.5% MC/0.5% TW80 suspension vehicle
[10] = 20 mg/kg in 45% cyclodextrin with water

T1 sequence (P08684 whole entry): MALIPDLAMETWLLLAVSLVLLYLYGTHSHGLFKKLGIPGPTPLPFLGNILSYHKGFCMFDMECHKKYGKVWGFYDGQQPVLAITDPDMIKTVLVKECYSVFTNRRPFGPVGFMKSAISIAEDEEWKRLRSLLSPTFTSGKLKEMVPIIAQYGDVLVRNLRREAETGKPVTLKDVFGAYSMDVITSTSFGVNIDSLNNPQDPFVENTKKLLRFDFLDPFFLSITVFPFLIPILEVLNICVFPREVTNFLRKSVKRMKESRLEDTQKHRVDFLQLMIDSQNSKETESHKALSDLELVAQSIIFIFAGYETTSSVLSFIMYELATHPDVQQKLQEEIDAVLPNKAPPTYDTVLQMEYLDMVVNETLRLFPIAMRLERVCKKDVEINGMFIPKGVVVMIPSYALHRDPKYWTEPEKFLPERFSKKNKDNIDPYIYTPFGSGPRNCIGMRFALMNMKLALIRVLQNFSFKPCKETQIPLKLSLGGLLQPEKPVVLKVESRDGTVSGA

IC50 (Cyp3A4 [1]; [5]) | IC50 (Cyp3A4 [1]; [6]) | IC50 (Cyp3A4 [2]; [7]) | IC50 (Cyp3A4 [2]; [8]) | TDI ratio: (−) NADPH/(+) NADPH (Cyp3A4 [2]) | Cmax [3, 9] | AUC(0-t) [3, 9] | Cmax [3, 10] | AUC(0-t) [3, 10] | Compound | Lung fibrosis disease severity compared to control compounds [4]
> 50 µM | > 50 µM | > 50 µM | > 50 µM | ~1 (no TDI) | 170 nM | 2.21 µM·h | 1710 nM | 8.08 µM·h | CCC(C)n1ncn(-c2ccc(N3CCN(c4ccc(OC[C@@H]5CO[C@@](Cc6ccnnc6)(c6ccc(Cl)cc6Cl)O5)cc4)CC3)cc2)c1=O (stereo partly shown) [Compound 22] | –
> 50 µM | > 50 µM | 41 µM | > 50 µM | ~1.2 (no TDI) | – | – | – | – | CCC(C)n1ncn(-c2ccc(N3CCN(c4ccc(OC[C@@H]5CO[C@@](Cn6nccn6)(c6ccc(Cl)cc6Cl)O5)cc4)CC3)cc2)c1=O (stereo partly shown) [Compound 15] | –
> 50 µM | > 50 µM | > 50 µM | > 50 µM | ~1 (no TDI) | – | – | 3160 nM | 42.7 µM·h | CCC(C)n1ncn(-c2ccc(N3CCN(c4ccc(OC[C@@H]5CO[C@@](Cn6nccn6)(c6ccccc6)O5)cc4)CC3)cc2)c1=O (stereo partly shown) [Compound 42] | decreased lung fibrosis disease severity with efficacy that was as good or better
